Assay results from US10988523B2, “Modified lipidated Relaxin B chain peptides and their therapeutic use” (Sanofi, priority 2018, dated 2021).
*1 amine or outer side, *2 acyl side, *3 side chain or, on linkers, in order; H or OH if unused. Where a SMILES comes first, the peptide text is derived from it. Side-chain parts run from the residue outwards. [ ]: non-standard residue; d: D form. The star is where a group is joined. X4 = CCCCCCCCCCCCCCCC(=O)N[C@@H](CCC(=O)N[C@@H](CCC(=O)NCCCC[C@H](NC(=O)CC[C@H](NC(=O)CC[C@H](NC(=O)CCC(=O)NCCCOCCOCCOCCCNC(=O)CCC(=O)NCCCOCCOCCOCCCNC(=O)CCC(=O)NCCCOCCOCCOCCCN*)C(=O)O)C(=O)O)C(N)=O)C(=O)O)C(=O)O; X3 = CCCCCCCCCCCCCCCC(=O)N[C@@H](CCC(=O)N[C@@H](CCC(=O)N[C@@H](CCC(=O)N[C@@H](CCC(=O)NCCCC[C@H](NC(=O)CCC(=O)NCCCOCCOCCOCCCNC(=O)CCC(=O)NCCCOCCOCCOCCCN*)C(N)=O)C(=O)O)C(=O)O)C(=O)O)C(=O)O; X5 = CCCCCCCCCCCCCCCC(=O)N[C@@H](CCC(=O)NCCCC[C@H](NC(=O)CC[C@H](NC(=O)CC[C@H](NC(=O)CC[C@H](NC(=O)CCC(=O)NCCCOCCOCCOCCCNC(=O)CCC(=O)NCCCOCCOCCOCCCN*)C(=O)O)C(=O)O)C(=O)O)C(N)=O)C(=O)O; γGlu = O=C(O)[C@H](CCC(=O)[*:2])N[*:1]; Palmitoyl = CCCCCCCCCCCCCCCC(=O)*; αMeK = C[C@](N)(CCCCN)C(=O)O; Nle = CCCC[C@H](N)C(=O)O; AEEA = NCCOCCOCC(=O)O; Aib = CC(C)(N)C(=O)O

Tests used:
[1] = target: T1, RXFP1 (Homo sapiens, UniProt Q9HBX9); experiment: OVCAR5 cAMP assay (HTRF), RXFP1 agonist activity; assay type: cell-based; settings: for EC50: OVCAR5 cells, cAMP HTRF, read-out: EC50 (nM), OVCAR 5 cells (cAMP); for Emax: OVCAR-5, maximal cAMP relative to H2-relaxin maximum (100%), read-out: EMax, OVCAR 5 cells (cAMP)
T1 construct: OVCAR5 cells expressing endogenous RXFP1; endogenous in cells; host or cells: OVCAR5 cells
T1 sequence (Q9HBX9 1-757): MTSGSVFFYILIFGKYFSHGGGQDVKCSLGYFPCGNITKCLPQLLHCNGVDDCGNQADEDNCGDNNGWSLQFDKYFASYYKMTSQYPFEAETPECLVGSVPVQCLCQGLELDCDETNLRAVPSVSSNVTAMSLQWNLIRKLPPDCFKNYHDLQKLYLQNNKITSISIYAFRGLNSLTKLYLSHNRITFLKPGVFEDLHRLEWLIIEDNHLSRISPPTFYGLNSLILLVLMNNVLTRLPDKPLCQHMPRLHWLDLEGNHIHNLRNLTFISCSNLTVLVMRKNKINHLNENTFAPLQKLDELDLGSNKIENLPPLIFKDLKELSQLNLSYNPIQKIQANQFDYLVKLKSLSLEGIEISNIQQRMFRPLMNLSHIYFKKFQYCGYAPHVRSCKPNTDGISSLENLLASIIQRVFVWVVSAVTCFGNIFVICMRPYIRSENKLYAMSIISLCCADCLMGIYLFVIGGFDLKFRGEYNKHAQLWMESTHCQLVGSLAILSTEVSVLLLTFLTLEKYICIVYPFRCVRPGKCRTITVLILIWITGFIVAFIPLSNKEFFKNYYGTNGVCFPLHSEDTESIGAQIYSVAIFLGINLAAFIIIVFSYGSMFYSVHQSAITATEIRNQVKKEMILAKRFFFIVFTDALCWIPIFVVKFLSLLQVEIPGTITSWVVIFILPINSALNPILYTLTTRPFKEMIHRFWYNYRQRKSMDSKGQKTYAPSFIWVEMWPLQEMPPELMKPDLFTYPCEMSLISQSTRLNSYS
Procedure, shortened: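 cAMP accumulation readout: after 1 mM IBMX for 40 min, endogenous-RXFP1 OVCAR5 cells got rising peptide concentrations without FCS, 30 min, 37° C, then lysis with HTRF cAMP reagents. Nonlinear regression gave EC50; Emax expressed relative to H2-relaxin maximum, same occasion.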

[2] = Pharmacokinetic (PK) determination after i.v. or s.c. administration to rats; assay type: in vivo, Sprague Dawley rats; settings: Sprague Dawley, Rat PK; for C0 / half-life: iv, 1 mg/kg i.v.; for C0: extrapolated plasma concentration at t=0, read-out: C0; for half-life / Cmax / Tmax / bioavailability: plasma; for half-life: read-out: T½ (converted); for Cmax / Tmax: sc, 3 mg/kg s.c.; for bioavailability: subcutaneous, 3 mg/kg s.c. vs 1 mg/kg i.v., dose-corrected AUC ratio
Procedure, shortened: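 Non-compartmental analysis of plasma LC/MS data (protein precipitation, BLQ taken as zero) gave T½, C0 (i.v.), Cmax/Tmax (s.c.) and F% from dose-corrected AUCs. Dosing: 3 mg/kg s.c. or 1 mg/kg i.v. in PBS to Sprague Dawley rats, purity- and salt-corrected.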

Structure (SMILES) | EC50 [1] | Emax [1] | C0 [2] | half-life [2] | Cmax [2] | Tmax [2] | bioavailability [2]
CCCCCCCCCCCCCCCC(=O)N[C@@H](CCC(=O)NCCCC[C@H](NC(=O)CC[C@H](NC(=O)CC[C@H](NC(=O)CC[C@H](NC(=O)COCCOCCNC(=O)COCCOCCNC(=O)COCCOCCNC(=O)COCCOCCNC(=O)[C@H](CCCCNC(C)=O)NC(=O)[C@H](C)NC(=O)[C@H](CCCNC(=N)N)NC(=O)[C@](C)(CCCCN)NC(=O)[C@H](CO)NC(=O)[C@H](Cc1ccccc1)NC(=O)[C@@H](NC(=O)[C@H](CO)NC(=O)[C@H](CCCC)NC(=O)CNC(=O)[C@H](CCC(=O)O)NC(=O)C(C)(C)NC(=O)C(C)(C)NC(=O)[C@@H](NC(=O)[C@H](CCCCNC(C)=O)NC(=O)[C@H](C)NC(=O)[C@H](CCCNC(=N)N)NC(=O)[C@@H](NC(=O)[C@H](CCCCN)NC(=O)[C@H](CCC(=O)O)NC(=O)[C@H](CCCNC(=N)N)NC(=O)CNC(=O)[C@H](CCC(=O)O)NC(=O)[C@H](CC(C)C)NC(C)=O)C(C)C)[C@@H](C)CC)[C@@H](C)O)C(=O)O)C(=O)O)C(=O)O)C(N)=O)C(=O)O [compound 149] (Ac-LEGREKVRAK(Ac)I[Aib][Aib]EG[Nle]STFS[αMeK]RAK(Ac)[AEEA][AEEA][AEEA][AEEA][γGlu][γGlu][γGlu]K([γGlu-Palmitoyl])-NH2) | 0.11 nM | 87% | 3330 nM | 4.33 h | 2500 nM | 6 h | 128%
CCCCCCCCCCCCCCCC(=O)N[C@@H](CCC(=O)NCCCC[C@H](NC(=O)CC[C@H](NC(=O)CC[C@H](NC(=O)CC[C@H](NC(=O)CCC(=O)NCCCOCCOCCOCCCNC(=O)CCC(=O)NCCCOCCOCCOCCCNC(=O)[C@H](CCCCNC(C)=O)NC(=O)[C@H](C)NC(=O)[C@H](CCCNC(=N)N)NC(=O)[C@](C)(CCCCN)NC(=O)[C@H](CO)NC(=O)[C@H](Cc1ccccc1)NC(=O)[C@@H](NC(=O)[C@H](CO)NC(=O)[C@H](CCCC)NC(=O)CNC(=O)[C@H](CCC(=O)O)NC(=O)C(C)(C)NC(=O)C(C)(C)NC(=O)[C@@H](NC(=O)[C@H](CCCCNC(C)=O)NC(=O)[C@H](C)NC(=O)[C@H](CCCNC(=N)N)NC(=O)[C@@H](NC(=O)[C@H](CCCCN)NC(=O)[C@H](CCC(=O)O)NC(=O)[C@H](CCCNC(=N)N)NC(=O)CNC(=O)[C@H](CCC(=O)O)NC(=O)[C@H](CC(C)C)NC(C)=O)C(C)C)[C@@H](C)CC)[C@@H](C)O)C(=O)O)C(=O)O)C(=O)O)C(N)=O)C(=O)O [compound 157] (Ac-LEGREKVRAK(Ac)I[Aib][Aib]EG[Nle]STFS[αMeK]RAK(Ac)-X5) | 0.02 nM | 89% | 4350 nM | 6.69 h | 1510 nM | 8 h | 59%
CCCCCCCCCCCCCCCC(=O)N[C@@H](CCC(=O)N[C@@H](CCC(=O)NCCCC[C@H](NC(=O)CC[C@H](NC(=O)CC[C@H](NC(=O)COCCOCCNC(=O)COCCOCCNC(=O)COCCOCCNC(=O)COCCOCCNC(=O)[C@H](CCCCNC(C)=O)NC(=O)[C@H](C)NC(=O)[C@H](CCCNC(=N)N)NC(=O)[C@](C)(CCCCN)NC(=O)[C@H](CO)NC(=O)[C@H](Cc1ccccc1)NC(=O)[C@@H](NC(=O)[C@H](CO)NC(=O)[C@H](CCCC)NC(=O)CNC(=O)[C@H](CCC(=O)O)NC(=O)C(C)(C)NC(=O)C(C)(C)NC(=O)[C@@H](NC(=O)[C@H](CCCCNC(C)=O)NC(=O)[C@H](C)NC(=O)[C@H](CCCNC(=N)N)NC(=O)[C@@H](NC(=O)[C@H](CCCCN)NC(=O)[C@H](CCC(=O)O)NC(=O)[C@H](CCCNC(=N)N)NC(=O)CNC(=O)[C@H](CCC(=O)O)NC(=O)[C@H](CC(C)C)NC(C)=O)C(C)C)[C@@H](C)CC)[C@@H](C)O)C(=O)O)C(=O)O)C(N)=O)C(=O)O)C(=O)O [compound 160] (Ac-LEGREKVRAK(Ac)I[Aib][Aib]EG[Nle]STFS[αMeK]RAK(Ac)[AEEA][AEEA][AEEA][AEEA][γGlu][γGlu]K([γGlu-γGlu-Palmitoyl])-NH2) | 0.28 nM | 86% | 2500 nM | 5.3 h | 1200 nM | 7 h | 66%
CCCCCCCCCCCCCCCC(=O)N[C@@H](CCC(=O)N[C@@H](CCC(=O)N[C@@H](CCC(=O)N[C@@H](CCC(=O)NCCCC[C@H](NC(=O)CCC(=O)NCCCOCCOCCOCCCNC(=O)CCC(=O)NCCCOCCOCCOCCCNC(=O)[C@H](CCCCNC(C)=O)NC(=O)[C@H](C)NC(=O)[C@H](CCCNC(=N)N)NC(=O)[C@](C)(CCCCN)NC(=O)[C@H](CO)NC(=O)[C@H](Cc1ccccc1)NC(=O)[C@@H](NC(=O)[C@H](CO)NC(=O)[C@H](CCCC)NC(=O)CNC(=O)[C@H](CCC(=O)O)NC(=O)C(C)(C)NC(=O)C(C)(C)NC(=O)[C@@H](NC(=O)[C@H](CCCCNC(C)=O)NC(=O)[C@H](C)NC(=O)[C@H](CCCNC(=N)N)NC(=O)[C@@H](NC(=O)[C@H](CCCCN)NC(=O)[C@H](CCC(=O)O)NC(=O)[C@H](CCCNC(=N)N)NC(=O)CNC(=O)[C@H](CCC(=O)O)NC(=O)[C@H](CC(C)C)NC(C)=O)C(C)C)[C@@H](C)CC)[C@@H](C)O)C(N)=O)C(=O)O)C(=O)O)C(=O)O)C(=O)O [compound 162] (Ac-LEGREKVRAK(Ac)I[Aib][Aib]EG[Nle]STFS[αMeK]RAK(Ac)-X3) | 0.12 nM | 91% | 3200 nM | 5 h | 2300 nM | 5 h | 64%
CCCCCCCCCCCCCCCC(=O)N[C@@H](CCC(=O)N[C@@H](CCC(=O)NCCCC[C@H](NC(=O)CC[C@H](NC(=O)CC[C@H](NC(=O)CCC(=O)NCCCOCCOCCOCCCNC(=O)CCC(=O)NCCCOCCOCCOCCCNC(=O)CCC(=O)NCCCOCCOCCOCCCNC(=O)[C@H](CCCCNC(C)=O)NC(=O)[C@H](C)NC(=O)[C@H](CCCNC(=N)N)NC(=O)[C@](C)(CCCCN)NC(=O)[C@H](CO)NC(=O)[C@H](Cc1ccccc1)NC(=O)[C@@H](NC(=O)[C@H](CO)NC(=O)[C@H](CCCC)NC(=O)CNC(=O)[C@H](CCC(=O)O)NC(=O)C(C)(C)NC(=O)C(C)(C)NC(=O)[C@@H](NC(=O)[C@H](CCCCNC(C)=O)NC(=O)[C@H](C)NC(=O)[C@H](CCCNC(=N)N)NC(=O)[C@@H](NC(=O)[C@H](CCCCN)NC(=O)[C@H](CCC(=O)O)NC(=O)[C@H](CCCNC(=N)N)NC(=O)CNC(=O)[C@H](CCC(=O)O)NC(=O)[C@H](CC(C)C)NC(C)=O)C(C)C)[C@@H](C)CC)[C@@H](C)O)C(=O)O)C(=O)O)C(N)=O)C(=O)O)C(=O)O [compound 169] (Ac-LEGREKVRAK(Ac)I[Aib][Aib]EG[Nle]STFS[αMeK]RAK(Ac)-X4) | 0.01 nM | 89% | 3040 nM | 5.8 h | 1890 nM | 6 h | 69%
